Measured values from ChEMBL document CHEMBL3508140 (2016).

Experiments:
[1] = Mean estimated half-life of epirubicin following intravenous epirubicin at 1 mg.Kg-1 dose administered approximately 25 minute prior to epirubicin once weekly for four weeks in dog; format: ADME, organism-based, Canis lupus familiaris; conditions: Beagle, plasma
[2] = Terminal half-life of 4'-epiadriamycin following intravenous 4'-epiadriamycin at 1.27 mg.Kg-1 dose in dog; format: ADME, organism-based, Canis lupus familiaris; conditions: Beagle, plasma
[3] = Plasma clearance of 4'-epiadriamycin following intravenous 4'-epiadriamycin at 1.27 mg.Kg-1 dose in dog; format: ADME, organism-based, Canis lupus familiaris; conditions: Beagle, read-out: Clp
[4] = Recovery of epirubicin following intravenous epirubicin at 4 mg.Kg-1 dose in rat; format: ADME, organism-based, SD, Plasma; conditions: in vivo
[5] = Recovery of epirubicin following intraperitoneal epirubicin at 4 mg.Kg-1 dose in hamster; format: ADME, organism-based, Cricetulus griseus, Plasma; conditions: chinese hamster, in vivo, ip
[6] = Increase in serum triglycerides level following reference intravenous epirubicin at 1 mg.Kg-1 per week in rat; format: toxicity, organism-based, SD; conditions: in vivo
[7] = Volume of distribution at steady state following intravenous epirubicin at 150 mg.m-2 dose in patients with advanced cancer; format: ADME, organism-based; conditions: human, plasma, read-out: Vss
[8] = Urinary excretion of epirubicin following epirubicin at 60-150 mg.m-2 dose in cancer patients; format: ADME, organism-based; conditions: human, urine; read-out: Compound recovery
[9] = Urinary excretion of epirubicin following epirubicin at 50 mg.m-2 dose in cancer patients; format: ADME, organism-based; conditions: human, urine, at 50 mg/m2, read-out: Compound recovery
[10] = Cumulative urinary excretion of epirubicin and its metabolites following epirubicin at 50 mg.m-2 dose in cancer patients; format: ADME, organism-based, Urine; conditions: human, in vivo; at 50 mg/m2
[11] = Cumulative urinary excretion of epirubicin and its metabolites following epirubicin at 60 mg.m-2 dose in cancer patients; format: ADME, organism-based, Urine; conditions: human, in vivo; at 60 mg/m2
[12] = Urinary excretion of epirubicin following epirubicin at 75-90 mg.m-2 dose in cancer patients; format: ADME, organism-based; conditions: human, urine; read-out: Compound recovery
[13] = Cumulative biliary excretion of epirubicin and its metabolites following epirubicin at 50 mg.m-2 dose in cancer patients; format: ADME, organism-based, Bile; conditions: human, in vivo; at 50 mg/m2
[14] = Renal clearance of epirubicin following epirubicin at 60 mg.m-2 dose in cancer patients; format: ADME, organism-based, Kidney; conditions: human, in vivo, iv, read-out: Renal clearance (converted)
[15] = Mean plasma clearance of epirubicin following intravenous epirubicin at 150 mg.m-2 dose in advanced cancer patients; format: ADME, organism-based; conditions: human, read-out: CLp (converted)
[16] = Elimination of epirubicin following epirubicin at 60 mg.m-2 dose in cancer patients; format: ADME, organism-based, Plasma; conditions: human, in vivo, iv
[17] = Mean plasma clearance of epirubicin following intravenous epirubicin at 60 mg.m-2 dose in cancer patients; format: ADME, organism-based; conditions: human, read-out: CLp (converted)
[18] = Volume of distribution as steady state of epirubicin following intravenous epirubicin at 60-90 mg.m-2 dose in cancer patients; format: ADME, organism-based, Plasma; conditions: human, in vivo
[19] = Half-life of terminal elimination phase of epirubicin following intravenous epirubicin at 30-90 mg.m-2 dose in cancer patients; format: ADME, organism-based; conditions: human, plasma
[20] = Plasma clearance of epirubicin following intravenous epirubicin at 30-90 mg.m-2 dose in cancer patients; format: ADME, organism-based; conditions: human, in vivo
[21] = Volume of distribution as steady state of epirubicin following intravenous epirubicin at 30-90 mg.m-2 dose in cancer patients; format: ADME, organism-based, Plasma; conditions: human, in vivo
[22] = Half-life of terminal elimination phase of epirubicin following intravenous epirubicin at 60 mg.m-2 dose in cancer patients; format: ADME, organism-based; conditions: human, plasma
[23] = Initial phase half-life of epirubicin following intravenous epirubicin at 20 mg.m-2 dose in cancer patients; format: ADME, organism-based, Plasma; conditions: human, in vivo
[24] = Intermediate phase half-life of epirubicin following intravenous epirubicin at 20 mg.m-2 dose in cancer patients; format: ADME, organism-based, Plasma; conditions: human, in vivo
[25] = Plasma clearance of epirubicin following intravenous epirubicin at 75 mg.m-2 dose in cancer patients; format: ADME, organism-based; conditions: human, in vivo
[26] = Volume of distribution as steady state of epirubicin following intravenous epirubicin at 75 mg.m-2 dose in cancer patients; format: ADME, organism-based, Plasma; conditions: human, in vivo
[27] = Volume of distribution as steady state of epirubicin following intravenous epirubicin at 40-135 mg.m-2 dose in cancer patients; format: ADME, organism-based, Plasma; conditions: human, in vivo
[28] = Intermediate phase half-life of epirubicin following intravenous epirubicin at 70 mg.m-2 dose in cancer patients; format: ADME, organism-based, Plasma; conditions: human, in vivo
[29] = Intermediate phase half-life of epirubicin following intravenous epirubicin at 40-60 mg.m-2 dose in cancer patients; format: ADME, organism-based, Plasma; conditions: human, in vivo
[30] = Half-life of terminal elimination phase of epirubicin following intravenous epirubicin at 40-60 mg.m-2 dose in cancer patients; format: ADME, organism-based; conditions: human, plasma
[31] = Volume of distribution as steady state of epirubicin following intravenous epirubicin at 40-60 mg.m-2 dose in cancer patients; format: ADME, organism-based, Plasma; conditions: human, in vivo
[32] = Terminal elimination of metabolite of epirubicin following intravenous epirubicin at 40-60 mg.m-2 dose in cancer patients; format: ADME, organism-based, Plasma; conditions: human, in vivo
[33] = Terminal elimination of metabolite of epirubicin following intravenous epirubicin at 50 mg.m-2 dose in cancer patients; format: ADME, organism-based, Plasma; conditions: human, in vivo
[34] = Volume of distribution as steady state of epirubicin following intravenous epirubicin at 25-35 mg.m-2 dose in cancer patients; format: ADME, organism-based, Plasma; conditions: human, in vivo
[35] = Half-life of terminal elimination phase of epirubicin following intravenous epirubicin at 75-90 mg.m-2 dose in cancer patients; format: ADME, organism-based; conditions: human, plasma
[36] = Volume of distribution as steady state of epirubicin following intravenous epirubicin at 75-90 mg.m-2 dose in cancer patients; format: ADME, organism-based, Plasma; conditions: human, in vivo
[37] = Half-life of epirubicin in plasma following single intravenous epirubicin at 10 mg.Kg-1 dose in female mouse bearing colon tumor; format: ADME, organism-based; conditions: BALB/c
[38] = Half-life of epirubicin in tumor following single intravenous epirubicin at 10 mg.Kg-1 dose in female mouse bearing colon tumor; format: ADME, organism-based, Neoplasm; conditions: BALB/c
[39] = (§1) Urinary elimination of 4'-epiadriamycin following intravenous bolus 4'-epiadriamycin at 10 mg.Kg-1 dose in rat; format: ADME, organism-based; conditions: SD, urine, read-out: Compound recovery
[40] = as §1; format: ADME, organism-based; conditions: SD, urine, read-out: Compound recovery; remark: listed apart in the source
[41] = as §1; format: ADME, organism-based; conditions: SD, urine, read-out: Compound recovery; remark: listed apart in the source
[42] = AUC of epirubicin following intravenous epirubicin at 3 mg.Kg-1 dose in rabbit; format: ADME, organism-based, Oryctolagus cuniculus; conditions: both, New Zealand White, plasma
[43] = Plasma clearance of epirubicin following intravenous epirubicin at 3 mg.Kg-1 dose in rabbit; format: ADME, organism-based, Oryctolagus cuniculus; conditions: both, New Zealand White
[44] = Volume of distribution of epirubicin following intravenous epirubicin at 3 mg.Kg-1 dose in rabbit; format: ADME, organism-based, Oryctolagus cuniculus; conditions: both, New Zealand White, plasma
[45] = Plasma clearance of epirubicin following intravenous epirubicin solution at 1 mg.Kg-1 dose in rabbit; format: ADME, organism-based, Oryctolagus cuniculus, Blood; conditions: both, New Zealand White
[46] = Volume of distribution of epirubicin following intravenous epirubicin emulsion at 1 mg.Kg-1 dose in rabbit; format: ADME, organism-based, Oryctolagus cuniculus; conditions: both, New Zealand White, blood
[47] = Mean residence time (MRT) of epirubicin following intravenous epirubicin solution at 1 mg.Kg-1 dose in rabbit; format: ADME, organism-based, Oryctolagus cuniculus; conditions: both, New Zealand White, blood, read-out: Mean residence time (converted)
[48] = Mean residence time (MRT) of epirubicin following intravenous epirubicin emulsion at 1 mg.Kg-1 dose in rabbit; format: ADME, organism-based, Oryctolagus cuniculus; conditions: both, New Zealand White, blood, read-out: Mean residence time (converted)
[49] = AUC of epirubicin following intrahepatic epirubicin emulsion at 1 mg.Kg-1 dose in rabbit; format: ADME, organism-based, Oryctolagus cuniculus; conditions: both, New Zealand White, blood
[50] = Volume of distribution of epirubicin following intrahepatic epirubicin solution at 1 mg.Kg-1 dose in rabbit; format: ADME, organism-based, Oryctolagus cuniculus; conditions: both, New Zealand White, blood

**Q.** Which results are given for `COc1cccc2c1C(=O)c1c(O)c3c(c(O)c1C2=O)C[C@@](O)(C(=O)CO)C[C@@H]3O[C@H]1C[C@H](N)[C@@H](O)[C@H](C)O1.Cl` [EPIRUBICIN HYDROCHLORIDE]?
**A.** half-life [1]: 51.1 h; half-life [2]: 7.1 min; clearance [3]: 589 mL/min; Compound recovery [4]: 56 10^-9M; Compound recovery [5]: 83 10^-9M; TRIG_CHANGE [6]: OUTCOME = Increased; Vd [7]: 21 L/kg; dose excreted at 168 h [8]: 3.2%; dose excreted at 48 h [9]: 6.2%; dose excreted at 96 h [9]: 9.6%; Radiolabel recovery [10]: 20%; Radiolabel recovery [11]: 11.3%; dose excreted at 48 h [12]: 5.9%; Radiolabel recovery [13]: 34.9%; CL renal [14]: 71.7 mL/min; clearance [15]: 1130 mL/min; Elimination [16]: OUTCOME = Observed; clearance [17]: 1250 mL/min; Vss [18]: 1844 L.m-2; half-life [19]: 39.4 h; CLp [20]: 48 L.h-1.m-2; Vss [21]: 1858 L.m-2; half-life [22]: 31.4 h; t1/2 [23]: 3.4 min; t1/2 [24]: 0.89 h; CLp [25]: 29 L.h-1.m-2; Vss [26]: 2964 L.m-2; Vss [27]: 836 L.m-2; t1/2 [28]: 1.25 h; t1/2 [29]: 0.49 h; half-life [30]: 15.3 h; Vss [31]: 592 L.m-2; t1/2 [32]: 31.5 h; t1/2 [33]: 21.1 h; Vss [34]: 925 L.m-2; half-life [35]: 38 h; Vss [36]: 1432 L.m-2; half-life [37]: 15.6 h; half-life [38]: 24.7 h; dose excreted [39]: 2.43%; dose excreted [40]: 3.9%; dose excreted [41]: 4.83%; AUC [42]: 620 ng·h/mL; clearance [43]: 323 mL/min; Vd [44]: 587 L/kg; clearance [45]: 813 mL/min; Vd [46]: 18.8 L/kg; MRT [47]: 1.26 h; MRT [48]: 0.835 h; AUC [49]: 36.4 ng·h/mL; Vd [50]: 129 L/kg
